Results published in article PMC4869123 (Scientific Reports, 2016).
*1 amine or outer side, *2 acyl side, *3 side chain or, on linkers, in order; H or OH if unused. Where a SMILES comes first, the peptide text is derived from it. Bridges are numbered along the chain shown (N, C = ends). Roman numbers before positions name the chains, in order. Where no end group is shown, it is not given here. [ ]: non-standard residue; d: D form. The star is where a group is joined. X1 = O=C(CCOCCOCCOCCOCCOCCOCCOCCOCCOCCOCCOCCOCCOCCOCCOCCOCCOCCOCCOCCOCCOCCC(=O)[*:2])[*:1]; X2 = CCNC(=O)CCOCCOCCOCCOCCOCCOCCOCCOCCOCCOCCOCCOCCOCCOCCOCCOCCOCCOCCOCCOCCOCCC(=O)*; CO(CH2CH2O)5CH2CH2CO = O=C(CCOCCOCCOCCOCCOCCC(=O)[*:2])[*:1]; Lys(Me2) = CN(C)CCCC[C@H](N)C(=O)O

B1: peptide 1 (peptide)
peptide: Ac-IVVTMPADLWDWIKA
modifications: not fully specified (C-terminus)
notes: 15-mer linear peptide from phage display; made on Rink resin; a C-terminal amide is surmised; also called phage peptide 1; source: synthetic peptide
B2: peptide 24 (peptide)
peptide: Ac-IVVTIPADLWDWIRA
modifications: not fully specified (C-terminus)
notes: analogue of peptide 2, I at position 5; made on Rink resin; a C-terminal amide is surmised; source: synthetic peptide

target: human IL-17A (human, UniProt Q16552 24-155); experiment: cell-based or functional assay; conditions: not given
Sequence (Q16552 24-155): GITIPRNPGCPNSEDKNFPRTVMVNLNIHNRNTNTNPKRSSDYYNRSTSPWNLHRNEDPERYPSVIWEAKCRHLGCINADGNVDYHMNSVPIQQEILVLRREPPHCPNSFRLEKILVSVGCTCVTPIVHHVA

Molecule	Cell IC50: inhibition of GRO-α production in BJ human fibroblast cells stimulated with 1 ng/ml IL-17A [nM]
B1	370
B2	18

target: T1, biotinylated recombinant human IL-17A (rhIL-17, R&D Systems #317-ILB) (human, UniProt Q16552 24-155, biotinylated); experiment: not given; conditions: both partners purified
T1 construct: IL-17A, human, recombinant; also called Biotinylated IL-17A; source: bought: R&D Systems
T1 sequence (Q16552 24-155): as above

Molecule	IC50 [nM]
B1	80
B2	3

target: T2, human IL-17A (Homo sapiens, UniProt Q16552); experiment: BJ human fibroblast cell assay, IL-17A stimulated GRO-α production; format: cell-based; conditions: BJ human fibroblast cells, 1 ng/ml human IL-17A
T2 construct: host or cells: added to BJ human fibroblasts (ATCC CRL2522)
Text: For inhibitor screen, human BJ fibroblast cells (ATCC CRL2522) (American Type Culture Collection, VA) were used. For mouse cell based assay MLE-12 mouse epithelial cells (ATCC CRL2110) were used. Both cell lines were maintained in ATCC recommended media.

T2 sequence (Q16552 24-155): as above

Molecule	IC50 [nM]
CCNC(=O)CCOCCOCCOCCOCCOCCOCCOCCOCCOCCOCCOCCOCCOCCOCCOCCOCCOCCOCCOCCOCCOCCC(=O)NCCCC[C@H](NC(=O)[C@@H](NC(=O)[C@H](Cc1c[nH]c2ccccc12)NC(=O)[C@H](CC(=O)O)NC(=O)[C@H](Cc1c[nH]c2ccccc12)NC(=O)[C@H](CC(C)C)NC(=O)[C@H](CC(=O)O)NC(=O)[C@H](C)NC(=O)[C@@H]1CCCN1C(=O)[C@@H](NC(=O)[C@@H](NC(=O)[C@@H](NC(=O)[C@@H](NC(=O)[C@@H](NC(C)=O)[C@@H](C)CC)[C@@H](C)O)C(C)C)[C@@H](C)O)[C@@H](C)CC)[C@@H](C)CC)C(=O)N[C@@H](CCCCN(C)C)C(N)=O [Compound 48] (Ac-ITVTIPADLWDWIK(X2)[Lys(Me2)]-NH2)	21
CC[C@H](C)[C@H](NC(C)=O)C(=O)N[C@@H](Cc1c[nH]cn1)C(=O)N[C@H](C(=O)N[C@H](C(=O)N[C@H](C(=O)N1CCC[C@H]1C(=O)N[C@@H](C)C(=O)N[C@@H](CC(=O)O)C(=O)N[C@@H](CC(C)C)C(=O)N[C@@H](Cc1c[nH]c2ccccc12)C(=O)N[C@@H](CC(=O)O)C(=O)N[C@@H](Cc1c[nH]c2ccccc12)C(=O)N[C@H](C(=O)N[C@@H](CC(N)=O)C(N)=O)[C@@H](C)CC)[C@@H](C)CC)[C@@H](C)O)C(C)C [Compound 35]	12
CC[C@H](C)[C@H](NC(C)=O)C(=O)N[C@H](C(=O)N[C@H](C(=O)N[C@@H](CCCCNC(=O)CCOCCOCCOCCOCCOCCOCCOCCOCCOCCOCCOCCOCCOCCOCCOCCOCCOCCOCCOCCOCCOCCC(=O)NCCCC[C@H](NC(=O)[C@@H](NC(=O)[C@@H](NC(=O)[C@@H](NC(C)=O)[C@@H](C)CC)[C@@H](C)O)C(C)C)C(=O)N[C@H](C(=O)N1CCC[C@H]1C(=O)N[C@@H](C)C(=O)N[C@@H](CC(=O)O)C(=O)N[C@@H](CC(C)C)C(=O)N[C@@H](Cc1c[nH]c2ccccc12)C(=O)N[C@@H](CC(=O)O)C(=O)N[C@@H](Cc1c[nH]c2ccccc12)C(=O)N[C@H](C(=O)N[C@@H](CC(N)=O)C(=O)N[C@@H](CCCCN(C)C)C(N)=O)[C@@H](C)CC)[C@@H](C)CC)C(=O)N[C@H](C(=O)N1CCC[C@H]1C(=O)N[C@@H](C)C(=O)N[C@@H](CC(=O)O)C(=O)N[C@@H](CC(C)C)C(=O)N[C@@H](Cc1c[nH]c2ccccc12)C(=O)N[C@@H](CC(=O)O)C(=O)N[C@@H](Cc1c[nH]c2ccccc12)C(=O)N[C@H](C(=O)N[C@@H](CC(N)=O)C(=O)N[C@@H](CCCCN(C)C)C(N)=O)[C@@H](C)CC)[C@@H](C)CC)C(C)C)[C@@H](C)O [Compound 41] (I: Ac-ITVKIPADLWDWIN[Lys(Me2)]-NH2 / II: Ac-ITVKIPADLWDWIN[Lys(Me2)]-NH2; linker I:4-II:4 via X1)	15
Ac-TIPADLWDWINK-NH2 [Compound 34]	> 1000
Ac-IHVTIPADLWDWI-NH2 [Compound 36]	183
CC[C@H](C)[C@H](NC(C)=O)C(=O)N[C@H](C(=O)N[C@H](C(=O)N[C@H](C(=O)N[C@H](C(=O)N1CCC[C@H]1C(=O)N[C@@H](CCCCNC(=O)CCOCCOCCOCCOCCOCCC(=O)NCCCC[C@H](NC(=O)[C@@H]1CCCN1C(=O)[C@@H](NC(=O)[C@@H](NC(=O)[C@@H](NC(=O)[C@@H](NC(=O)[C@@H](NC(C)=O)[C@@H](C)CC)[C@@H](C)O)C(C)C)[C@@H](C)O)[C@@H](C)CC)C(=O)N[C@@H](CC(=O)O)C(=O)N[C@@H](CC(C)C)C(=O)N[C@@H](Cc1c[nH]c2ccccc12)C(=O)N[C@@H](CC(=O)O)C(=O)N[C@@H](Cc1c[nH]c2ccccc12)C(=O)N[C@H](C(=O)N[C@@H](CC(N)=O)C(=O)N[C@@H](CCCCN(C)C)C(N)=O)[C@@H](C)CC)C(=O)N[C@@H](CC(=O)O)C(=O)N[C@@H](CC(C)C)C(=O)N[C@@H](Cc1c[nH]c2ccccc12)C(=O)N[C@@H](CC(=O)O)C(=O)N[C@@H](Cc1c[nH]c2ccccc12)C(=O)N[C@H](C(=O)N[C@@H](CC(N)=O)C(=O)N[C@@H](CCCCN(C)C)C(N)=O)[C@@H](C)CC)[C@@H](C)CC)[C@@H](C)O)C(C)C)[C@@H](C)O [Compound 42] (I: Ac-ITVTIPKDLWDWIN[Lys(Me2)]-NH2 / II: Ac-ITVTIPKDLWDWIN[Lys(Me2)]-NH2; linker I:7-II:7 via CO(CH2CH2O)5CH2CH2CO)	24
CC[C@H](C)[C@H](NC(=O)CCOCCOCCOCCOCCOCCOCCOCCOCCOCCOCCOCCOCCOCCOCCOCCOCCOCCOCCOCCOCCOCCC(=O)N[C@H](C(=O)N[C@H](C(=O)N[C@H](C(=O)N[C@H](C(=O)N[C@H](C(=O)N1CCC[C@H]1C(=O)N[C@@H](C)C(=O)N[C@@H](CC(=O)O)C(=O)N[C@@H](CC(C)C)C(=O)N[C@@H](Cc1c[nH]c2ccccc12)C(=O)N[C@@H](CC(=O)O)C(=O)N[C@@H](Cc1c[nH]c2ccccc12)C(=O)N[C@H](C(=O)N[C@@H](CC(N)=O)C(=O)N[C@@H](CCCCN(C)C)C(N)=O)[C@@H](C)CC)[C@@H](C)CC)[C@@H](C)O)C(C)C)[C@@H](C)O)[C@@H](C)CC)C(=O)N[C@H](C(=O)N[C@H](C(=O)N[C@H](C(=O)N[C@H](C(=O)N1CCC[C@H]1C(=O)N[C@@H](C)C(=O)N[C@@H](CC(=O)O)C(=O)N[C@@H](CC(C)C)C(=O)N[C@@H](Cc1c[nH]c2ccccc12)C(=O)N[C@@H](CC(=O)O)C(=O)N[C@@H](Cc1c[nH]c2ccccc12)C(=O)N[C@H](C(=O)N[C@@H](CC(N)=O)C(=O)N[C@@H](CCCCN(C)C)C(N)=O)[C@@H](C)CC)[C@@H](C)CC)[C@@H](C)O)C(C)C)[C@@H](C)O [Compound 39] (I: ITVTIPADLWDWIN[Lys(Me2)]-NH2 / II: ITVTIPADLWDWIN[Lys(Me2)]-NH2; linker I:N-II:N via X1)	0.74
CC[C@H](C)[C@H](NC(C)=O)C(=O)N[C@H](C(=O)N[C@H](C(=O)N[C@@H](CCCCNC(=O)CCOCCOCCOCCOCCOCCC(=O)NCCCC[C@H](NC(=O)[C@@H](NC(=O)[C@@H](NC(=O)[C@@H](NC(C)=O)[C@@H](C)CC)[C@@H](C)O)C(C)C)C(=O)N[C@H](C(=O)N1CCC[C@H]1C(=O)N[C@@H](C)C(=O)N[C@@H](CC(=O)O)C(=O)N[C@@H](CC(C)C)C(=O)N[C@@H](Cc1c[nH]c2ccccc12)C(=O)N[C@@H](CC(=O)O)C(=O)N[C@@H](Cc1c[nH]c2ccccc12)C(=O)N[C@H](C(=O)N[C@@H](CC(N)=O)C(=O)N[C@@H](CCCCN(C)C)C(N)=O)[C@@H](C)CC)[C@@H](C)CC)C(=O)N[C@H](C(=O)N1CCC[C@H]1C(=O)N[C@@H](C)C(=O)N[C@@H](CC(=O)O)C(=O)N[C@@H](CC(C)C)C(=O)N[C@@H](Cc1c[nH]c2ccccc12)C(=O)N[C@@H](CC(=O)O)C(=O)N[C@@H](Cc1c[nH]c2ccccc12)C(=O)N[C@H](C(=O)N[C@@H](CC(N)=O)C(=O)N[C@@H](CCCCN(C)C)C(N)=O)[C@@H](C)CC)[C@@H](C)CC)C(C)C)[C@@H](C)O [Compound 40] (I: Ac-ITVKIPADLWDWIN[Lys(Me2)]-NH2 / II: Ac-ITVKIPADLWDWIN[Lys(Me2)]-NH2; linker I:4-II:4 via CO(CH2CH2O)5CH2CH2CO)	3370
